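Step 1: Grow cells in 96-well plates. Step 2: Expose to compound for 48 hours at 5 concentrations. Step 3: Interpolate endpoints linearly; if unreached, use highest concentration. The concentration for 50% growth inhibition is given as GI50. TGI: concentration producing complete growth inhibition.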
Key:
Test in all cases: NCI tumour cell line growth inhibition, 48 h
MDA-MB-231 breast = test system: MDA-MB-231 breast
CCRF-CEM leukemia = test system: CCRF-CEM leukemia
SW-620 colon = test system: SW-620 colon
MALME-3M melanoma = test system: MALME-3M melanoma
BT-549 breast = test system: BT-549 breast
HL-60(TB) leukemia = test system: HL-60(TB) leukemia
COLO 205 colon = test system: COLO 205 colon
SK-MEL-5 melanoma = test system: SK-MEL-5 melanoma
SK-OV-3 ovarian = test system: SK-OV-3 ovarian
DU-145 prostate = test system: DU-145 prostate
OVCAR-8 ovarian = test system: OVCAR-8 ovarian
OVCAR-5 ovarian = test system: OVCAR-5 ovarian
RPMI-8226 leukemia = test system: RPMI-8226 leukemia
SK-MEL-2 melanoma = test system: SK-MEL-2 melanoma
HCT-116 colon = test system: HCT-116 colon
OVCAR-3 ovarian = test system: OVCAR-3 ovarian
NCI/ADR-RES ovarian = test system: NCI/ADR-RES ovarian
HCC-2998 colon = test system: HCC-2998 colon
T-47D breast = test system: T-47D breast
A498 renal = test system: A498 renal
HOP-62 NSCLC = test system: HOP-62 NSCLC
NCI-H226 lung = test system: NCI-H226 lung
M14 melanoma = test system: M14 melanoma
MOLT-4 leukemia = test system: MOLT-4 leukemia
SF-295 CNS = test system: SF-295 CNS
RXF 393 renal = test system: RXF 393 renal
CAKI-1 renal = test system: CAKI-1 renal
HT29 colon = test system: HT29 colon
NCI-H23 lung = test system: NCI-H23 lung
NCI-H460 lung = test system: NCI-H460 lung
IGROV1 ovarian = test system: IGROV1 ovarian
SF-539 CNS = test system: SF-539 CNS
SN12C renal = test system: SN12C renal
786-0 renal = test system: 786-0 renal
U251 CNS = test system: U251 CNS
SR leukemia = test system: SR leukemia
SNB-19 CNS = test system: SNB-19 CNS
HCT-15 colon = test system: HCT-15 colon
SF-268 CNS = test system: SF-268 CNS
UACC-62 melanoma = test system: UACC-62 melanoma
UACC-257 melanoma = test system: UACC-257 melanoma
HOP-92 NSCLC = test system: HOP-92 NSCLC
OVCAR-4 ovarian = test system: OVCAR-4 ovarian
HS 578T breast = test system: HS 578T breast
LOX IMVI melanoma = test system: LOX IMVI melanoma
SNB-75 CNS = test system: SNB-75 CNS
KM12 colon = test system: KM12 colon
NCI-H522 lung = test system: NCI-H522 lung
MCF7 breast = test system: MCF7 breast
SK-MEL-28 melanoma = test system: SK-MEL-28 melanoma
PC-3 prostate = test system: PC-3 prostate
ACHN renal = test system: ACHN renal
K-562 leukemia = test system: K-562 leukemia
UO-31 renal = test system: UO-31 renal
MDA-MB-435 = test system: MDA-MB-435
A549 NSCLC = test system: A549 NSCLC

SMILES: O=C1Nc2ccccc2/C1=C/C(=N/c1nnc(-c2ccc(Cl)cc2)s1)c1ccccc1
- GI50 (MDA-MB-231 breast): 2.14 µM
- TGI (MDA-MB-231 breast): 6.21 µM
- GI50 (CCRF-CEM leukemia): 1.16 µM
- TGI (CCRF-CEM leukemia): 4.28 µM
- GI50 (SW-620 colon): 1.21 µM
- TGI (SW-620 colon): 2.82 µM
- GI50 (MALME-3M melanoma): 2.07 µM
- TGI (MALME-3M melanoma): 6.18 µM
- GI50 (BT-549 breast): 1.79 µM
- TGI (BT-549 breast): 3.66 µM
- GI50 (HL-60(TB) leukemia): 1.78 µM
- TGI (HL-60(TB) leukemia): 5.54 µM
- GI50 (COLO 205 colon): 1.77 µM
- TGI (COLO 205 colon): 3.4 µM
- GI50 (SK-MEL-5 melanoma): 12.6 µM
- TGI (SK-MEL-5 melanoma): 26.9 µM
- GI50 (SK-OV-3 ovarian): 5.86 µM
- TGI (SK-OV-3 ovarian): 17.4 µM
- GI50 (DU-145 prostate): 2.52 µM
- TGI (DU-145 prostate): 6.9 µM
- GI50 (OVCAR-8 ovarian): 2.81 µM
- TGI (OVCAR-8 ovarian): 10.1 µM
- GI50 (OVCAR-5 ovarian): 1.81 µM
- TGI (OVCAR-5 ovarian): 4.86 µM
- GI50 (RPMI-8226 leukemia): 2.07 µM
- TGI (RPMI-8226 leukemia): 5.4 µM
- GI50 (SK-MEL-2 melanoma): 3.21 µM
- TGI (SK-MEL-2 melanoma): 9.32 µM
- GI50 (HCT-116 colon): 1.06 µM
- TGI (HCT-116 colon): 2.38 µM
- GI50 (OVCAR-3 ovarian): 1.26 µM
- TGI (OVCAR-3 ovarian): 2.66 µM
- GI50 (NCI/ADR-RES ovarian): 3.31 µM
- TGI (NCI/ADR-RES ovarian): 12.2 µM
- GI50 (HCC-2998 colon): 8.11 µM
- TGI (HCC-2998 colon): 20.9 µM
- GI50 (T-47D breast): 2.31 µM
- TGI (T-47D breast): 10.2 µM
- GI50 (A498 renal): 9.03 µM
- TGI (A498 renal): 26.1 µM
- GI50 (HOP-62 NSCLC): 7.16 µM
- TGI (HOP-62 NSCLC): 21.5 µM
- GI50 (NCI-H226 lung): 3.19 µM
- TGI (NCI-H226 lung): 13.4 µM
- GI50 (M14 melanoma): 2.37 µM
- TGI (M14 melanoma): 6.28 µM
- GI50 (MOLT-4 leukemia): 2.27 µM
- TGI (MOLT-4 leukemia): 6.01 µM
- GI50 (SF-295 CNS): 11.6 µM
- TGI (SF-295 CNS): 25.6 µM
- GI50 (RXF 393 renal): 1.5 µM
- TGI (RXF 393 renal): 3.07 µM
- GI50 (CAKI-1 renal): 1.43 µM
- TGI (CAKI-1 renal): 4.92 µM
- GI50 (HT29 colon): 1.94 µM
- TGI (HT29 colon): 5.61 µM
- GI50 (NCI-H23 lung): 2.96 µM
- TGI (NCI-H23 lung): 11.2 µM
- GI50 (NCI-H460 lung): 5.95 µM
- TGI (NCI-H460 lung): 21.9 µM
- GI50 (IGROV1 ovarian): 2.1 µM
- TGI (IGROV1 ovarian): 5.59 µM
- GI50 (SF-539 CNS): 1.81 µM
- TGI (SF-539 CNS): 4.08 µM
- GI50 (SN12C renal): 2.16 µM
- TGI (SN12C renal): 5.97 µM
- GI50 (786-0 renal): 1.72 µM
- TGI (786-0 renal): 3.4 µM
- GI50 (U251 CNS): 4.04 µM
- TGI (U251 CNS): 15.5 µM
- GI50 (SR leukemia): 0.964 µM
- TGI (SR leukemia): 6.05 µM
- GI50 (SNB-19 CNS): 12.6 µM
- TGI (SNB-19 CNS): 25.4 µM
- GI50 (HCT-15 colon): 1.4 µM
- TGI (HCT-15 colon): 3.28 µM
- GI50 (SF-268 CNS): 4.25 µM
- TGI (SF-268 CNS): 16.3 µM
- GI50 (UACC-62 melanoma): 1.93 µM
- TGI (UACC-62 melanoma): 4.58 µM
- GI50 (UACC-257 melanoma): 2.82 µM
- TGI (UACC-257 melanoma): 8.64 µM
- GI50 (HOP-92 NSCLC): 0.969 µM
- TGI (HOP-92 NSCLC): 3.03 µM
- GI50 (OVCAR-4 ovarian): 2.56 µM
- TGI (OVCAR-4 ovarian): 12.2 µM
- GI50 (HS 578T breast): 3.25 µM
- TGI (HS 578T breast): 16 µM
- GI50 (LOX IMVI melanoma): 1.54 µM
- TGI (LOX IMVI melanoma): 3.13 µM
- GI50 (SNB-75 CNS): 2.53 µM
- TGI (SNB-75 CNS): 13.7 µM
- GI50 (KM12 colon): 4.85 µM
- TGI (KM12 colon): 15.6 µM
- GI50 (NCI-H522 lung): 0.518 µM
- TGI (NCI-H522 lung): 1.21 µM
- GI50 (MCF7 breast): 2.36 µM
- TGI (MCF7 breast): 10.8 µM
- GI50 (SK-MEL-28 melanoma): 2.36 µM
- TGI (SK-MEL-28 melanoma): 5.59 µM
- GI50 (PC-3 prostate): 1.93 µM
- TGI (PC-3 prostate): 5.88 µM
- GI50 (ACHN renal): 1.41 µM
- TGI (ACHN renal): 2.83 µM
- GI50 (K-562 leukemia): 1.75 µM
- TGI (K-562 leukemia): 11.4 µM
- GI50 (UO-31 renal): 1.4 µM
- TGI (UO-31 renal): 3.48 µM
- GI50 (MDA-MB-435): 2.55 µM
- TGI (MDA-MB-435): 7.23 µM
- GI50 (A549 NSCLC): 7.78 µM
- TGI (A549 NSCLC): 23.8 µM

Source: PubChem BioAssay (NCI)
